Measured values as given in patent US20120149700A1, “2-CYANOPHENYL FUSED HETEROCYCLIC COMPOUNDS, AND COMPOSTIONS AND USES THEREOF” (priority 2007, published 2012).

Tests used:
P2X3 = target: T1, P2X3 (Homo sapiens, UniProt P56373); experiment: Calcium uptake assay (P2X antagonist assay, inhibition of agonist-induced calcium influx), P2X3; format: cell-based; conditions: inhibition of agonist-induced calcium influx in cells expressing the receptor
T1 construct: expressed in transfected cells; host or cells: e.g. HEK293 or 1321N1
T1 sequence (P56373 1-397): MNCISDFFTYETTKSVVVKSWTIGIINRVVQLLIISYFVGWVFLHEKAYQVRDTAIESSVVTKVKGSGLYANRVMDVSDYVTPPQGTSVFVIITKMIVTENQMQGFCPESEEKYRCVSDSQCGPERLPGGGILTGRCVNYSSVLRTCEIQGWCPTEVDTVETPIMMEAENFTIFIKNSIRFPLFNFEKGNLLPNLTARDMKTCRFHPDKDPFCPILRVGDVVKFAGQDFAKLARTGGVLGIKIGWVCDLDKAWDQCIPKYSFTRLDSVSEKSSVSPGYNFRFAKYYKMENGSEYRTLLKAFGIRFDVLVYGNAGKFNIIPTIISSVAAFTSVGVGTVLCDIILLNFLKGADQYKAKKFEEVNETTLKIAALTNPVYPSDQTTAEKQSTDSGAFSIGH
Description: (§1) The human P2X2/3 chimera clone is created as described by Neelands et al, and then cloned into an expression vector as above. Receptors are expressed in cells (e.g., HEK293 or 1321N1 (obtained from the ECACC)) via transient transfection using standard lipid mediated transfection, or by creation of stable transfectants for each receptor. For expression of the P2X2/3 heteromeric receptor, the P2X3 expression vector is stably transfected into a cell line already stably expressing P2X2. P2X2/3 heteromer function is isolated using pharmacological methods. Cell lines are maintained in DMEM+5% Glutamax, the appropriate level of selective antibiotic, and 10% heat inactivated FBS.
(§2) Functional activity of compounds at the P2X receptor is determined by measuring their ability to inhibit agonist-induced calcium influx. Compounds are tested for antagonist activity against the P2X2/3 chimera, the P2X3 homomer, or the P2X2/3 heteromer. At the start of each screening day, the agonist EC50 is determined. Compound % inhibition or IC50s are subsequently determined using a pre-determined agonist concentration (EC50-90 depending on cell line) as a stimulus. The agonists used are αβMeATP, ATP, or other ATP analogs. Compounds may be tested at concentrations ranging from 1 pM to 10 μM.
(§3) To test for antagonist activity, cells expressing the appropriate receptor are seeded onto 96 or 384 well plates 18-24 hours prior to assay. […] Plates are incubated at 37° C. and then equilibrated at room temperature. Antagonism of agonist-induced calcium influx is measured using a fluorescent imaging plate reader (e.g. FLIPR^TETRA, Molecular Devices, Sunnyvale, Calif.). The assay comprises two stages: a pre-treatment phase followed by a treatment phase. Compounds may be tested as follows: For the pre-treatment phase, 50 μL of 3× concentration of test compound in HBSS is added to cells containing 100 μL of dye loading media to achieve a final concentration of 1× test compound. For the treatment phase, at a set interval after pre-treatment (1-30 minutes), 50 μl, of 1× test compound plus 4× agonist solution is added, resulting in a final concentration of 1× compound and 1× agonist. […] Responses are measured as (peak fluorescence after agonist addition) minus (baseline fluorescence prior to treatment). Percent inhibition is calculated as follows: […]
(§4) IC50 values are determined by analyzing dose response data in a 4 parameter logistic fit using GraphPad Prizm.

P2X2/3 = target: T2, P2X2/3 (Homo sapiens, UniProt P56373+Q9UBL9); experiment: Calcium uptake assay (P2X antagonist assay, inhibition of agonist-induced calcium influx), P2X2/3; format: cell-based; conditions: inhibition of agonist-induced calcium influx in cells expressing the receptor
T2 construct: expressed in transfected cells; host or cells: cell line stably expressing P2X2, stably transfected with P2X3 (e.g. HEK293 or 1321N1)
T2 sequence (Q9UBL9 1-471): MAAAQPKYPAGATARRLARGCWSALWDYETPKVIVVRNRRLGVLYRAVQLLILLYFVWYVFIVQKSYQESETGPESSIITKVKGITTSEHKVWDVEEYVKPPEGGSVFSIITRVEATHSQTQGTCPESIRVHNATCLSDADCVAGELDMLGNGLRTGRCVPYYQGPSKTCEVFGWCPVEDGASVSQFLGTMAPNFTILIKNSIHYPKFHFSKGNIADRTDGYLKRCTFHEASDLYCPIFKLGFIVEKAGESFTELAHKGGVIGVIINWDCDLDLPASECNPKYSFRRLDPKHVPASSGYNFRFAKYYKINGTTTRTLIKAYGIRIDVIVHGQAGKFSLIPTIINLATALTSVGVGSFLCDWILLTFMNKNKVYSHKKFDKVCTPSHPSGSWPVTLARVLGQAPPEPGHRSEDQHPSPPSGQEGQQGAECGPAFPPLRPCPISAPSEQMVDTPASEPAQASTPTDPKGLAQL
T2 sequence (P56373 1-397): T1 sequence (P56373 1-397)
Description: as §1, §2, §3, §4

Row | SMILES | IC50 (P2X3) [nM] | IC50 (P2X2/3) [nM]
1 | Cc1ccc(N2CCc3ncnc(NCc4ccc(Cl)c(S(C)(=O)=O)c4)c3C2)c(C#N)c1 [Compound 71, 2-[4-(4-Chloro-3-methanesulfonyl-benzylamino)-7,8-dihydro-5H-pyrido[4,3-d]pyrimidin-6-yl]-5-methyl-benzonitrile] | 37 | 120
2 | Cc1ccc(N2CCc3ncnc(NCc4cccc(C#N)c4)c3C2)c(C#N)c1 [Compound 36, 2-[4-(3-Cyano-benzylamino)-7,8-dihydro-5H-pyrido[4,3-d]pyrimidin-6-yl]-5-methyl-benzonitrile] | 183 | 1090
3 | N#Cc1cc(Cl)ccc1N1CCc2ncnc(NCc3ccc4nccnc4c3)c2C1 [Compound 84, 5-Chloro-2-{4-[(quinoxalin-6-ylmethyl)-amino]-7,8-dihydro-5H-pyrido[4,3-d]pyrimidin-6-yl}-benzonitrile] | 125 | 478
4 | Cc1ccc(N2CCc3ncnc(NCc4ccc(Cl)cn4)c3C2)c(C#N)c1 [Compound 28, 2-{-4-[(5-Chloro-pyridin-2-ylmethyl)-amino]-7,8-dihydro-5,1-pyrido[4,3-d]pyrimidin-6-yl}-5-methyl-benzonitrile] | 29 | 152
5 | N#Cc1cc(Cl)ccc1N1CCc2ncnc(NCc3ncc(C(F)(F)F)cc3Cl)c2C1 [Compound 16, 5-Chloro-2-{4-[(3-chloro-5-trifluoromethyl-pyridin-2-ylmethyl)-amino]-7,8-dihydro-5H-pyrido[4,3-d]pyrimidin-6-yl}-benzonitrile] | 91 | 1130
6 | COc1ccc(CNc2ncnc3c2CN(c2ccc(Cl)cc2C#N)CC3)cn1 [Compound 13, 5-Chloro-2-(4-((6-methoxypyridin-3-yl)methylamino)-7,8-dihydropyrido[4,3-d]pyrimidin-6(5H)-yl)benzonitrile] | 59 | 169
7 | N#Cc1cc(Cl)ccc1N1CCc2ncnc(NCc3ccc(Cl)c(-n4cnnc4)c3)c2C1 [Compound 52, 5-Chloro-2-[4-(4-chloro-3-[1,2,4]triazol-4-yl-benzylamino)-7,8-dihydro-5H-pyrido[4,3-d]pyrimidin-6-yl]-benzonitrile] | 41 | 286
8 | Cc1ccc(N2CCc3ncnc(NCc4ccc5cccnc5c4)c3C2)c(C#N)c1 [Compound 92, 5-Methyl-2-(4-(quinolin-7-ylmethylamino)-7,8-dihydropyrido[4,3-d]pyrimidin-6(5H)-yl)benzonitrile] | 20 | 24
9 | Cc1ccc(N2CCc3ncnc(NCc4ncc(Cl)cc4Cl)c3C2)c(C#N)c1 [Compound 32, 2-{-4-[(3,5-Dichloro-pyridin-2-ylmethyl)-amino]-7,8-dihydro-5H-pyrido[4,3-d]pyrimidin-6-yl}-5-methyl-benzonitrile] | 41 | 50
10 | N#Cc1cc(Cl)ccc1N1CCc2ncnc(NCc3ccc(C(F)(F)F)nc3)c2C1 [Compound 4, 5-Chloro-2-{4-[(6-trifluoromethyl-pyridin-3-ylmethyl)-amino]-7,8-dihydro-5H-pyrido[4,3-d]pyrimidin-6-yl}-benzonitrile] | 37 | 842
11 | Cc1ccc(N2CCc3ncnc(NCc4ccc5ccccc5n4)c3C2)c(C#N)c1 [Compound 80, 5-Methyl-2-(4-(quinolin-2-ylmethylamino)-7,8-dihydropyrido[4,3-d]pyrimidin-6(5H)-yl)benzonitrile] | 156 | 263
12 | Cc1ccc(N2CCc3ncnc(N[C@H](CCO)c4ccc(C(F)(F)F)nc4)c3C2)c(C#N)c1 [Compound 64, 2-{4-[(R)-3-Hydroxy-1-(6-trifluoromethyl-pyridin-3-yl)-propylamino]-7,8-dihydro-5H-pyrido[4,3-d]pyrimidin-6-yl}-5-methyl-benzonitrile] | 23 | 59
13 | CSc1cc(CNc2ncnc3c2CN(c2ccc(C)cc2C#N)CC3)ccc1C [Compound 49, 5-Methyl-2-[4-(4-methyl-3-methylsulfanyl-benzylamino)-7,8-dihydro-5H-pyrido[4,3-d]pyrimidin-6-yl]-benzonitrile] | 474 | 925
14 | Cc1ccc(N2CCc3ncnc(NCc4ccccn4)c3C2)c(C#N)c1 [Compound 29, 5-Methyl-2-{4-[(pyridin-2-ylmethyl)-amino]-7,8-dihydro-5H-pyrido[4,3-d]pyrimidin-6-yl}-benzonitrile] | 196 | 1670
15 | N#Cc1cc(F)ccc1N1CCc2ncnc(NCc3ccc(C(F)(F)F)nc3)c2C1 [Compound 9, 5-Fluoro-2-{4-[(6-trifluoromethyl-pyridin-3-ylmethyl)-amino]-7,8-dihydro-5H-pyrido[4,3-d]pyrimidin-6-yl}-benzonitrile] | 85 | 11400
16 | N#Cc1cc(Cl)ccc1N1CCc2ncnc(N[C@H](CO)c3ccc(C(F)F)nc3)c2C1 [Compound 72, 5-Chloro-2-[4-[(S)-1-(6-difluoromethyl-pyridin-3-yl)-2-hydroxy-ethylamino]-7,8-dihydro-5H-pyrido[4,3-d]pyrimidin-6-yl]-benzonitrile] | 16 | 404
17 | COc1ccc([C@@H](CCO)Nc2ncnc3c2CN(c2ccc(Cl)cc2C#N)CC3)cn1 [Compound 34, 5-Chloro-2-{4-[(R)-3-hydroxy-1-(6-methoxy-pyridin-3-yl)-propylamino]-7,8-dihydro-5H-pyrido[4,3-d]pyrimidin-6-yl}-benzonitrile] | 33 | 105
18 | Cc1ccc(N2CCc3ncnc(NCc4ccc5ocnc5c4)c3C2)c(C#N)c1 [Compound 38, 2-{4-[(Benzooxazol-5-ylmethyl)-amino]-7,8-dihydro-5H-pyrido[4,3-d]pyrimidin-6-yl}-5-methyl-benzonitrile] | 15 | 45
19 | Cc1nc(C(F)(F)F)ccc1CNc1ncnc2c1CN(c1ccc(Cl)cc1C#N)CC2 [Compound 11, 5-Chloro-2-(4-((2-methyl-6-(trifluoromethyl)pyridin-3-yl)methylamino)-7,8-dihydropyrido[4,3-d]pyrimidin-6(5H)-yl)benzonitrile] | 187 | > 10000
20 | Cc1ccc(N2CCc3ncnc(NCc4ccc5c(c4)OCO5)c3C2)c(C#N)c1 [Compound 82, 2-(4-(Benzo[d][1,3]dioxol-5-ylmethylamino)-7,8-dihydropyrido[4,3-d]pyrimidin-6(5H)-yl)-5-methylbenzonitrile] | 56 | 310
21 | N#Cc1cc(Cl)ccc1N1CCc2ncnc(NCc3ccc(C(F)(F)F)cn3)c2C1 [Compound 17, 5-Chloro-2-{4-[(5-trifluoromethyl-pyridin-2-ylmethyl)-amino]-7,8-dihydro-5H-pyrido[4,3-d]pyrimidin-6-yl}-benzonitrile] | 118 | 4890
22 | Cc1ccc(N2CCc3ncnc(NCc4ccc5nccnc5c4)c3C2)c(C#N)c1 [Compound 79, 5-Methyl-2-(4-(quinoxalin-6-ylmethylamino)-7,8-dihydropyrido[4,3-d]pyrimidin-6(5H)-yl)benzonitrile] | 34 | 67
